Results published in ChEMBL document CHEMBL4321848 (J Med Chem, 2019).

What was measured:
[1] = biological target: T1, Nicotinamide N-methyltransferase (Homo sapiens, UniProt P40261); experiment: biochemical
T1 sequence (P40261 whole entry): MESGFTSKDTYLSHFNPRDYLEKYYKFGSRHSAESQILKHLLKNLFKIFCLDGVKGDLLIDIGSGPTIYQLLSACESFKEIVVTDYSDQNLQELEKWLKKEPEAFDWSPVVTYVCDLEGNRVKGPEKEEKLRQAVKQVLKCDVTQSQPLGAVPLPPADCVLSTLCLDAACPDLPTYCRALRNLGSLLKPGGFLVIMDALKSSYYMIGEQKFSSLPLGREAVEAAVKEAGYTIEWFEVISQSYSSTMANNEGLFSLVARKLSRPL

[2] = biological target: T2, Phenylethanolamine N-methyltransferase (Homo sapiens, UniProt P11086); experiment: Inhibition of human N-terminal His6 tagged PNMT using norepinephrine as substrate preincubated for 10 mins in presence of AdoMet followed by substrate addition by fluorescence based SAHH enzyme coupled assay
T2 sequence (P11086 whole entry): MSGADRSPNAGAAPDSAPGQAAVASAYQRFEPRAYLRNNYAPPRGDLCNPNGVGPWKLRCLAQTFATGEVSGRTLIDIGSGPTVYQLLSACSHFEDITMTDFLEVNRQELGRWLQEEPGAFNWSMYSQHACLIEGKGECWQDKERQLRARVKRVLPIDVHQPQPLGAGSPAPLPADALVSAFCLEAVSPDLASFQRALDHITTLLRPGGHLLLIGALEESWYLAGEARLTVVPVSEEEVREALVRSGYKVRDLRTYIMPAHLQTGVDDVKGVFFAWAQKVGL

[3] = biological target: Indolethylamine N-methyltransferase (Homo sapiens, UniProt O95050); experiment: Inhibition of human N- terminal His6 tagged human INMT expressed in Escherichia coli BL21-CodonPlus(DE3)-RIL using tryptamine as substrate preincubated for 10 mins in presence of AdoMet followed by substrate addition by fluorescence based SAHH enzyme coupled assay
Indolethylamine N-methyltransferase, sequence (O95050 whole entry, the tested form may be a part): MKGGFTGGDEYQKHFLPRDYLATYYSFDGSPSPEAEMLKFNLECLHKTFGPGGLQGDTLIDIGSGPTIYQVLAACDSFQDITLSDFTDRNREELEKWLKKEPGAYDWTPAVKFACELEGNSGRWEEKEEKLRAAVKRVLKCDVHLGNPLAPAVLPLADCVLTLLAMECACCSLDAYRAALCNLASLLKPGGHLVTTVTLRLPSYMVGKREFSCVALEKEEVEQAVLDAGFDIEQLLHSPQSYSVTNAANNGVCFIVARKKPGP

[4] = biological target: T3, Histone-lysine N-methyltransferase EHMT2 (Homo sapiens, UniProt Q96KQ7); experiment: Inhibition of recombinant human G9a (913 to 1193 residues) expressed in Escherichia coli BL21-CodonPlus(DE3)-RIL using H3-21 peptide preincubated for 10 mins in presence of AdoMet followed by substrate addition by fluorescence based SAHH enzyme coupled assay
T3 sequence (Q96KQ7 whole entry): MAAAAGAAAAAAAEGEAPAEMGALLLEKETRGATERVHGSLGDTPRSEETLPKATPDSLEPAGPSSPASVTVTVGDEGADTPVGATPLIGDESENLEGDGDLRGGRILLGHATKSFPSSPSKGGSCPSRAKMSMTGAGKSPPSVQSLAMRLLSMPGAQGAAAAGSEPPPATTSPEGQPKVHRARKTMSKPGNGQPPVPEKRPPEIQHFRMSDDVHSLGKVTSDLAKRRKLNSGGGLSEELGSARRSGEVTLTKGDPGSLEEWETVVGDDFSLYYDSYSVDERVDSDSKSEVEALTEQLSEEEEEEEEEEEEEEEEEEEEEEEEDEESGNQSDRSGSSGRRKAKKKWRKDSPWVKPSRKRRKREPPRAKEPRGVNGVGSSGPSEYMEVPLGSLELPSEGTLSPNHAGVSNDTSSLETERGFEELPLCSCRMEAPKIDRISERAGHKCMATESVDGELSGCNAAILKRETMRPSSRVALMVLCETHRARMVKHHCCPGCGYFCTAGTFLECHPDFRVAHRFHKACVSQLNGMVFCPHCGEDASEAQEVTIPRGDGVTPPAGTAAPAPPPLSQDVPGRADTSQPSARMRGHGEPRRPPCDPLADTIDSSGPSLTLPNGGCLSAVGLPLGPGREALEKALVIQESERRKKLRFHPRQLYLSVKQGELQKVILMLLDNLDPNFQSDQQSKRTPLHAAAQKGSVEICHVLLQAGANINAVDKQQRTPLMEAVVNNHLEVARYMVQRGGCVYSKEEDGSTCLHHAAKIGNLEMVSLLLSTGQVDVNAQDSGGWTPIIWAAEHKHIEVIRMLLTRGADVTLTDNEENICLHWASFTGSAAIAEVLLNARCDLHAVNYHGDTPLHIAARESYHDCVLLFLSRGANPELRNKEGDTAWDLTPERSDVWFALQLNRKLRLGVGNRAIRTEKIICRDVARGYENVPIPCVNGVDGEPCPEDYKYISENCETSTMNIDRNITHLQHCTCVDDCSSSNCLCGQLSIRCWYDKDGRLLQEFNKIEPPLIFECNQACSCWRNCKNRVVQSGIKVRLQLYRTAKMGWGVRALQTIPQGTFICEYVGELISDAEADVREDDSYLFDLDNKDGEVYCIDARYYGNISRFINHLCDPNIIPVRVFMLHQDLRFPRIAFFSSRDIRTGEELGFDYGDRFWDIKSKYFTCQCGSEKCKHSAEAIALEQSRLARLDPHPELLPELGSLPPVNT

[5] = biological target: T4, Histone-lysine N-methyltransferase SETD7 (Homo sapiens, UniProt Q8WTS6); experiment: Inhibition of recombinant human His-tagged SETD7 (1 to 366 residues) expressed in Escherichia coli using H3-21 peptide as susbtrate preincubated for 10 mins in presence of AdoMet followed by substrate addition by fluorescence based SAHH enzyme coupled assay
T4 sequence (Q8WTS6 whole entry): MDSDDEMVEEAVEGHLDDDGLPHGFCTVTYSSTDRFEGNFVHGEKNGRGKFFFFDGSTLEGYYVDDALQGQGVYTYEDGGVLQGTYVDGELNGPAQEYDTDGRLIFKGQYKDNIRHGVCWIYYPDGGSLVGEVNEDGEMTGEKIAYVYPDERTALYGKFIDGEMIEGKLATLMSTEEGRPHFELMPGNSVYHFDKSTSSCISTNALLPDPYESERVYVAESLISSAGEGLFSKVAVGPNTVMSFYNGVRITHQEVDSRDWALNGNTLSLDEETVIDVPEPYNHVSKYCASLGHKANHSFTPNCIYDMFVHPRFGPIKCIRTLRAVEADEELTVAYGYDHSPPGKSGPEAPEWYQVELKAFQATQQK

[6] = biological target: Protein arginine N-methyltransferase 1 (Rattus norvegicus, UniProt Q63009); experiment: Inhibition of recombinant rat His-tagged PRMT1 expressed in Escherichia coli BL21(DE3) cells using H4-21 peptide as susbtrate preincubated for 10 mins in presence of AdoMet followed by substrate addition by fluorescence based SAHH enzyme coupled assay
Protein arginine N-methyltransferase 1, sequence (Q63009 whole entry): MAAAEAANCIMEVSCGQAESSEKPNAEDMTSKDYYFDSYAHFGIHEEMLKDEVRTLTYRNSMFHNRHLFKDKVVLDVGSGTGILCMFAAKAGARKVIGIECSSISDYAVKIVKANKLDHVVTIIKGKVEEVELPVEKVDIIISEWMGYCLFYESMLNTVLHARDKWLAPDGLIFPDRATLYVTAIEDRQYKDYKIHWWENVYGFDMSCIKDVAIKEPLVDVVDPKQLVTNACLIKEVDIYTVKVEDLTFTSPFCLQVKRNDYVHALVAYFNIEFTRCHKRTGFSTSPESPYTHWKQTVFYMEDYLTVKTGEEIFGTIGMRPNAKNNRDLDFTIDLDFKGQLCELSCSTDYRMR

[7] = Inhibition of Trypanosoma brucei PRMT7 expressed in Escherichia coli preincubated for 10 mins in presence of AdoMet followed by susbtrate addition by fluorescence based SAHH enzyme coupled assay
[8] = biological target: T5, N-terminal Xaa-Pro-Lys N-methyltransferase 1 (Homo sapiens, UniProt Q9BV86); experiment: Inhibition of NTMT1 (unknown origin) using GPKRIA peptide as substrate preincubated for 10 mins in presence of AdoMet followed by susbtrate addition by fluorescence based SAHH enzyme coupled assay
T5 sequence (Q9BV86 whole entry): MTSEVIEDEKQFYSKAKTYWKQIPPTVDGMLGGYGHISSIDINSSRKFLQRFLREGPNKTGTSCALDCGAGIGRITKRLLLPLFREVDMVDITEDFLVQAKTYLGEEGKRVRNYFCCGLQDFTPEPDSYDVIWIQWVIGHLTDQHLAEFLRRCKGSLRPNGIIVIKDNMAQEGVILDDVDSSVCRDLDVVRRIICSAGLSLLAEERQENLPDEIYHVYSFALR

Adenosylhomocysteinase = Adenosylhomocysteinase (Homo sapiens, UniProt P23526); experiment: Inhibition of SAHH (unknown origin) using SAH as substrate preincubated for 10 mins followed by susbtrate addition by fluorescence based assay
Adenosylhomocysteinase, sequence (P23526 whole entry): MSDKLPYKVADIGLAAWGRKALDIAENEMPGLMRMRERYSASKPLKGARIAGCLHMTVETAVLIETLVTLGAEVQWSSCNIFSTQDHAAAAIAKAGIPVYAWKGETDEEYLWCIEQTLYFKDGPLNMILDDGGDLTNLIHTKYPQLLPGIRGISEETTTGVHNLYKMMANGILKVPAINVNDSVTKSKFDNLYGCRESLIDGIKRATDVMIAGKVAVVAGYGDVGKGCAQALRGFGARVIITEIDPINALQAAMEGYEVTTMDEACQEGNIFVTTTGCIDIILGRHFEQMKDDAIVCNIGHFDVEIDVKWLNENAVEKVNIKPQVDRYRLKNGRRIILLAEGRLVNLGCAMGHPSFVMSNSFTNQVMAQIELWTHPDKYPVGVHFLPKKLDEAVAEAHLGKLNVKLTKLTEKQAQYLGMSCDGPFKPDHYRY

SMILES | Ki [1] [µM] | further results
NC(=O)c1cccc(CCN(CC[C@H](N)C(=O)O)C[C@H]2O[C@@H](n3cnc4c(N)ncnc43)[C@H](O)[C@@H]2O)c1 | 10 | –
NC(=O)c1cccc(CCCN(CC[C@H](N)C(=O)O)C[C@H]2O[C@@H](n3cnc4c(N)ncnc43)[C@H](O)[C@@H]2O)c1 | 0.043 | –
NC(=O)c1cccc(CCCCN(CCC[C@H](N)C(=O)O)C[C@H]2O[C@@H](n3cnc4c(N)ncnc43)[C@H](O)[C@@H]2O)c1 | 0.54 | –
COc1ccc(C(N)=O)cc1C#CCN(CC[C@H](N)C(=O)O)C[C@H]1O[C@@H](n2cnc3c(N)ncnc32)[C@H](O)[C@@H]1O | 0.052 | –
NC(=O)c1cccc(C#CCN(CC[C@H](N)C(=O)O)C[C@H]2O[C@@H](n3cnc4c(N)ncnc43)[C@H](O)[C@@H]2O)c1 | – | IC50 [2]: > 100 µM; IC50 [3]: > 100 µM; IC50 [4]: > 100 µM; IC50 [5]: > 100 µM; IC50 [6]: > 100 µM; IC50 [7]: > 33 µM; IC50 [8]: > 33 µM; IC50 (Adenosylhomocysteinase): > 3.7 µM
Nc1ncnc2c1ncn2[C@@H]1O[C@H](CN(CCCc2ccc3ccccc3c2)CC[C@H](N)C(=O)O)[C@@H](O)[C@H]1O | 4 | –
Nc1ncnc2c1ncn2[C@@H]1O[C@H](CN(CCc2ccc3ccccc3c2)CC[C@H](N)C(=O)O)[C@@H](O)[C@H]1O | 27.3 | –
NC(=O)c1cccc(C#CCNC[C@H]2O[C@@H](n3cnc4c(N)ncnc43)[C@H](O)[C@@H]2O)c1 | 3 | –
Cc1ccc(C#CCN(CC[C@H](N)C(=O)O)C[C@H]2O[C@@H](n3cnc4c(N)ncnc43)[C@H](O)[C@@H]2O)cc1C(N)=O | 0.016 | –
Nc1ncnc2c1ncn2[C@@H]1O[C@H](CN(CCCc2cccc3ccccc23)CCC[C@H](N)C(=O)O)[C@@H](O)[C@H]1O | 1.1 | –
Cc1ccc(C(N)=O)cc1CCCN(CC[C@H](N)C(=O)O)C[C@H]1O[C@@H](n2cnc3c(N)ncnc32)[C@H](O)[C@@H]1O | 0.15 | –
NC(=O)c1cccc(CCCN(CCC[C@H](N)C(=O)O)C[C@H]2O[C@@H](n3cnc4c(N)ncnc43)[C@H](O)[C@@H]2O)c1 | 3 | –
Cc1ccc(CCCN(CC[C@H](N)C(=O)O)C[C@H]2O[C@@H](n3cnc4c(N)ncnc43)[C@H](O)[C@@H]2O)cc1C(N)=O | 0.051 | –
NC(=O)c1cccc(CCCCN(CC[C@H](N)C(=O)O)C[C@H]2O[C@@H](n3cnc4c(N)ncnc43)[C@H](O)[C@@H]2O)c1 | 0.84 | –
Nc1ncnc2c1ncn2[C@@H]1O[C@H](CN(CCCc2ccc3ccccc3c2)CCC[C@H](N)C(=O)O)[C@@H](O)[C@H]1O | 33.3 | –
COC(=O)c1cccc(CCCN(CC[C@H](N)C(=O)O)C[C@H]2O[C@@H](n3cnc4c(N)ncnc43)[C@H](O)[C@@H]2O)c1 | 28 | –
Nc1ncnc2c1ncn2[C@@H]1O[C@H](CN(CCCc2cccc3ccccc23)CC[C@H](N)C(=O)O)[C@@H](O)[C@H]1O | 11.8 | –
NC(=O)c1ccccc1 [BENZAMIDE] | > 100 | –
